Reference: ChEMBL document CHEMBL1154133, “Pestalazines and pestalamides, bioactive metabolites from the plant pathogenic fungus Pestalotiopsis theae” (J Nat Prod, 2008)
≈ marks a conversion by molar mass, not a printed value. Counter-ions that a name gives are not always drawn.

What was measured:
[1] = test system: Aspergillus fumigatus; experiment: Antifungal activity against Aspergillus fumigatus ATCC 10894 by alamar blue assay; assay type: functional
[2] = test system: Human immunodeficiency virus 1; experiment: Antiviral activity against HIV1 LAI infected in human C8166 cells assessed as inhibition of viral replication by ELISA; assay type: functional, organism-based; conditions: Human immunodeficiency virus 1, LAI
[3] = Cytotoxicity against human C8166 cells after 4 days by MTT assay; assay type: cell-based
[4] = test system: Aspergillus fumigatus; experiment: Antifungal activity against Aspergillus fumigatus ATCC 10894 by microplate reader assay; assay type: functional, organism-based

Row | Compound | MIC [1] [µM] | EC50 [2] [µM] | CC50 at 96 h [3] [µM] | IC50 [4] [µM]
1 | OC(Cn1cncn1)(Cn1cncn1)c1ccc(F)cc1F [FLUCONAZOLE] | 163 (≈ 50 µg/mL) |  |  | 
2 | CC(C)(C)NC(=O)[C@@H]1CN(Cc2cccnc2)CCN1C[C@@H](O)C[C@@H](Cc1ccccc1)C(=O)N[C@H]1c2ccccc2C[C@H]1O [INDINAVIR SULFATE] |  | 0.0055 |  | 
3 | C[C@@H](CC(=O)NC(=O)c1coc(Cc2ccccc2)cc1=O)C(=O)O [PESTALAMIDE A] | 57.8 (≈ 19.8 µg/mL) | 64.2 | > 100 | 1.5
